{"source": "patent US6500323B1", "about": "“Methods and software for designing microfluidic devices” (Caliper Technologies Corp., priority 1999, dated 2002)", "key": {"[1]": {"target": "T1, Gq coupled P2u purinergic receptor (THP-1) (Homo sapiens, UniProt P41231)", "T1 construct": "cell line that carried the Gq coupled P2u purinergic receptor (THP-1); endogenous in cells; host or cells: THP-1 (human monocytic leukemia cell line)", "T1 sequence (P41231 whole entry)": "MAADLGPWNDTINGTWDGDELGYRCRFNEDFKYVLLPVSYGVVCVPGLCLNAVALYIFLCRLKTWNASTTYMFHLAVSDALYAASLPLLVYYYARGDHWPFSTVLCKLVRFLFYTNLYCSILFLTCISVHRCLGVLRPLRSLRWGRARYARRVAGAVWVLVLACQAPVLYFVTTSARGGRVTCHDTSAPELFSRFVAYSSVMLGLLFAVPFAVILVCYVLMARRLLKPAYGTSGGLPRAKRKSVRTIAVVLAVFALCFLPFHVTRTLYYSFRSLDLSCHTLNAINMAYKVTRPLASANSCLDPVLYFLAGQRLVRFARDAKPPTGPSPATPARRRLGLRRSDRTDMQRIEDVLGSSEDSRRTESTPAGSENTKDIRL", "test": "model calcium flux assay, dose response in microfluidic device", "assay_type": "cell-based", "conditions": "THP-1 cells preloaded with Fluo-3 or Fluo-4; UTP 100, 300, 1000 and 3000 nM; detection 15 seconds after initial exposure; FIG. 2D/2E", "text": "The device shown in FIG. 2C was fabricated and used to test the dose response of a human monocytic leukemia cell line that carried the Gq coupled P2u purinergic receptor (THP-1), as a model calcium flux assay. Briefly, a phospholipase C/IP3/calcium signal transduction pathway is activated when the receptor binds to its ligand, UTP. When the cells are preloaded with a calcium sensitive indicator, i.e., Fluo-3 or Fluo-4 (available from Molecular Probes, Eugene, Oreg.), the transient increase in intracellular calcium is then detected as a fluorescent signal.\nIn the present example and with reference to FIGS. 2A and 2C, THP-1 cells were preloaded with Fluo-3 or Fluo-4, as well as a nucleic acid stain (Syto-62 from Molecular Probes). The cells were washed and resuspended in Cell Buffer (1.56 ml HBSS, 0.94 ml 33% Ficoll, 5 μl HEPES (1 M stock), 25 μl 100×PBC, 25 μl 10% BSA, and 0.546 ml OPTI-Prep (65% stock)) and added to reservoir 206. Different concentrations of UTP in Cell Buffer (100, 300, 1000 and 3000 nM, respectively) were then added to reagent reservoirs 210-216. […]\nIn order to monitor the stepwise increase of each UTP reagent solution, an additional marker solution, BODIPY-arginine, was added to the reagent reservoirs 210-216. […] Briefly, the slope of calcium signal (response) vs. Syto 62 signal (cell number) was calculated for each UTP concentration."}, "Protein Kinase A (PKA)": {"target": "Protein Kinase A (PKA) (Homo sapiens, UniProt P17612)", "test": "nonfluorogenic (mobility shift) assay of kinase activity in microfluidic device", "assay_type": "biochemical", "conditions": "PKA 100 nM, 10 μM F1-Kemptide; different concentrations of inhibitor sipped; FIG. 3C", "experimental": "The device illustrated in FIG. 3B was used as described to perform a nonfluorogenic assay of kinase activity, and particularly, to screen for inhibition of kinase activity by inhibitors brought into the device via the external sampling capillary. In particular, Protein Kinase A (PKA) enzyme (100 nM) was placed into well 350, while the fluorescent substrate (10 μM F1-Kemptide) was placed into well 352, different concentrations of an exemplary PKA inhibitor (H-89) were sipped into the reaction channel portion 304 via an external capillary element (the entry point of which is shown as 302) at regular intervals. Flow of materials, including sipping of inhibitor was caused by applying vacuum (as described above) at waste reservoir 358. An electric field was constantly applied across the length of channel segment 310 by virtue of different voltages being applied at reservoirs 354 and 356. The process utilized a 5 second sipping time, with an overall 100 second duty cycle, e.g., reaction time plus separation time plus clearing time."}}}
{"smiles": "O=c1ccn([C@@H]2O[C@H](COP(=O)(O)OP(=O)(O)OP(=O)(O)O)[C@@H](O)[C@H]2O)c(=O)[nH]1", "note": "[UTP]", "values": [{"measurement": "calcium signal (response), fluorescent signal from each cell", "setting": "[1]", "value": "peaks increase discernibly in size with each stepwise addition"}]}
{"smiles": "O=S(=O)(NCCNC/C=C/c1ccc(Br)cc1)c1cccc2cnccc12", "note": "[H-89]", "values": [{"measurement": "inhibition of kinase activity (deviation from steady state)", "setting": "Protein Kinase A (PKA)", "value": "greatest deviation from steady state (A) is seen with highest inhibitor concentration"}]}
